According to patent US10660855B2 (priority 2019, dated 2020):

How the values were obtained:
[1] = cited from earlier work
[2] = Water-solubility / water-dispersing ability (FIG. 1); type: physicochemical; settings: FIG. 1, dispersed in water, bottle A vs bottle B

For Cannabidiol [CBD], the half-life ([1]; in vivo) is listed as “about 9 hours”, the “bioavailability when being used nasally (inhalantly)” value ([1]; nasal (inhalation)) is listed as “about 31%” and the “bioavailability when being used orally” value ([1]; oral) is listed as 13-19%. The water-dispersing ability [2] was “insoluble in water”.
